Where only a bound is given, the exact number is not on record here.

The term IC50 denotes the midpoint of a concentration-inhibition curve.

Assay [1] has as its system CHO (chinese hamster ovary). The assay can be described thus: Cell proliferation inhibition, Cell Titer-Glo, CHO. The format is cell-based. The settings on record: Cricetulus griseus; cell proliferation assay, CHO cells. The protocol:
(§1) IGF1R and other tyrosine kinase inhibitors can inhibit the proliferation of certain cancer cell lines indicating their possible therapeutic utility for treating the corresponding cancer types. Cancer cell lines of interest and control normal lines, including CHO, HEK293, BA/F3, MM1, H929, COLO205, PC3, DU145, MCF7, Panc1, ACHN, Hep G2, H460, K562, TT, U87-G, CAOV-3, SK-MEL5, Karpas 299, are plated in white, clear-bottomed 384-well cell culture plates at 2500-5000 cells per well and supplied with dilutions of tested compounds After a desired period of time (typically 3 days), the number of viable cells is quantitated by using Cell Titer-Glo Luminescent Cell Viability Assay (Promega), a cell proliferation assay system based on detection of total amount of ATP present as a measure of cell metabolic activity. The plated cells are mixed with the Cell Titer-Glo developing reagent and counted in a luminescence multiwell plate reader according to the standard manufacturer's protocol to generate IC50 curves for cell proliferation inhibition.
(§2) IGF1R and other tyrosine kinase inhibitors can inhibit the proliferation of certain cancer cell lines indicating their possible therapeutic utility for treating the corresponding cancer types. Cancer cell lines of interest and control normal lines, including CHO, HEK293, BA/F3, COLO205, PC3, DU145, MCF7, Panc1, ACHN, Hep G2, H460, K562, TT, U87-MG, CAOV-3, SK-MEL5, Karpas 299 and human multiple myeloma cell lines H929, MM1s, MM1r, UTMC2, CPM2, KMS11, My5, KMS12PE, My7, JJN3, KMS18, U266, SKMM2, RPMI-8226 are plated in white, clear-bottomed 384-well cell culture plates at 2500-5000 cells per well and supplied with dilutions of tested compounds After a desired period of time (typically 3 days), the number of viable cells is quantitated by using Cell Titer-Glo Luminescent Cell Viability Assay (Promega), a cell proliferation assay system based on detection of total amount of ATP present as a measure of cell metabolic activity. The plated cells are mixed with the Cell Titer-Glo developing reagent and counted in a luminescence multiwell plate reader according to the standard manufacturer's protocol to generate IC50 curves for cell proliferation inhibition. Results are typically reported as percent of growth (% viability =(OD72h(compound)−ODday0))/(OD72h(no compound)−ODday0). Alternatively, viable cells are quantitated by using the conventional colorimetric MTT assay. The MTT assay is based on the cleavage of the yellow tetrazolium salt MTT to purple formazan crystal by metabolic active cells. The formazan is then solubilized, and the concentration determined by optical density at 570 nm. The cells plated and incubated with a compound as described above are supplemented with the solution of MTT and incubated for 2-3 hours. The growth medium is removed and dimethyl sulfoxide is added into each well to dissolve the formazan. The absorbance is measured on an ELISA plate reader with a test wavelength of 570 nm and a background subtraction wavelength of 630 nm to obtain sample signal (OD570-OD630). […] The results are reported in terms of IC50 value for a particular compound and a cell line in the standard 3-day proliferation assay using Cell Titer-Glo. […] The results are reported in terms of IC50 value for a particular compound and a cell line in the standard 3-day proliferation assay using MTT assay.
(Cellular ATP, detected with luciferase, serves as a proxy for viable cell number.)

The test system of assay [2] is HEK293 (human normal embryonic kidney). Briefly: Cell proliferation inhibition, Cell Titer-Glo, HEK293. The note with it: cell proliferation assay, HEK293 cells, read-out: HEK 293 IC50. The assay is classed as cell-based. How it is done: as §1, §2
Assay [3] concerns the target T1, IGF1R tyrosine kinase (Homo sapiens, UniProt P08069).
T1 construct: 6×His- or GST-tagged kinase domain fragments of the corresponding RTKs expressed in baculovirus system; host or cells: baculovirus system
The assay can be described thus: IGF1R tyrosine kinase assay (Kinase-Glo ATP depletion or PT66/PT100 AlphaScreen). The note with it: biochemical tyrosine kinase assay. In outline:
(§3)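 Luminescence of remaining ATP (Kinase-Glo) or anti-phosphotyrosine AlphaScreen proximity signal served as read-out. Reactions held purified tagged kinase domain, poly(Glu-Tyr) substrate and 10 μM ATP at pH 7.5. IC50 values came from non-linear regression fits.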
Background: Kinase-Glo measures the ATP left after a reaction by luminescence.

Assay [4] addresses T2, InsR (Homo sapiens, UniProt P06213).
T2 construct: 6×His- or GST-tagged kinase domain fragments of the corresponding RTKs expressed in baculovirus system; host or cells: baculovirus system
Briefly: Tyrosine kinase assay (Kinase-Glo or AlphaScreen), InsR. The settings on record: biochemical tyrosine kinase assay. In outline:
as §3

In assay [5] the test system is H929 (multiple myeloma). Briefly: Cell proliferation inhibition, Cell Titer-Glo, H929. The format is cell-based. The note with it: Homo sapiens, NCI-H929; cell proliferation assay, H929 cells. In outline:
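Cells seeded at 2500-5000 per well with serially diluted compound for typically 3 days. Viable cells measured by ATP luminescence (Cell Titer-Glo); IC50 from proliferation-inhibition curves.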

Assay [6] deals with T3, Jak2 (Homo sapiens, UniProt O60674).
T3 construct: 6×His- or GST-tagged kinase domain fragments of the corresponding RTKs expressed in baculovirus system; host or cells: baculovirus system
T3 sequence (O60674 849-1124 limits assumed, species assumed): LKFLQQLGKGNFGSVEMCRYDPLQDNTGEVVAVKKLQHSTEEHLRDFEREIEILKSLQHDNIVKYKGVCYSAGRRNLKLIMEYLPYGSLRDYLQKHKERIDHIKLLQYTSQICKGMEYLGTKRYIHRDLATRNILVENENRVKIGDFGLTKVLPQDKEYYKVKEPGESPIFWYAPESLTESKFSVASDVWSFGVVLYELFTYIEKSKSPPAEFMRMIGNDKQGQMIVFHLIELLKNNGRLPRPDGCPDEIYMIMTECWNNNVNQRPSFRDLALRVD
Briefly: Tyrosine kinase assay (Kinase-Glo or AlphaScreen), Jak2. The settings on record: biochemical tyrosine kinase assay. In outline:
as §3

Assay [7] deals with T4, Alk (Homo sapiens, UniProt Q9UM73).
T4 construct: 6×His- or GST-tagged kinase domain fragments of the corresponding RTKs expressed in baculovirus system; host or cells: baculovirus system
T4 sequence (Q9UM73 1116-1392 limits assumed, species assumed): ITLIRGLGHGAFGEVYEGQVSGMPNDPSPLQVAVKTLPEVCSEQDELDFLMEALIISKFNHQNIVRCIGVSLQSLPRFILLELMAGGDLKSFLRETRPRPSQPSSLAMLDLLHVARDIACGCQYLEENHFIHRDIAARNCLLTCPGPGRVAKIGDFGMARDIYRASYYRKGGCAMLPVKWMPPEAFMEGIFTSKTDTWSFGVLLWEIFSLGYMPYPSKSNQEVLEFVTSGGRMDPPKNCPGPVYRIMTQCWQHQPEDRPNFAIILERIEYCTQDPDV
Briefly: Tyrosine kinase assay (Kinase-Glo or AlphaScreen), Alk. The note with it: biochemical tyrosine kinase assay. In outline:
as §3

Assay [8] has as its system K562. The assay can be described thus: Cell proliferation inhibition, Cell Titer-Glo, K562. The format is cell-based. The note with it: Homo sapiens; cell proliferation assay, K562 cells. The essentials:
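K562 cells were seeded at 2500-5000 cells per well in white, clear-bottomed 384-well culture plates and treated with dilutions of test compounds for typically 3 days. Viable cells were quantified with the Cell Titer-Glo Luminescent Cell Viability Assay (Promega), which measures total ATP, read on a luminescence plate reader to derive IC50 values for proliferation inhibition.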

Assay [9] relates to Karpas-299. Briefly: Cell proliferation inhibition, Cell Titer-Glo, Karpas-299. The assay is classed as cell-based. The settings on record: Homo sapiens; cell proliferation assay, Karpas-299 cells. The essentials:
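Karpas 299 cells were seeded into white, clear-bottomed 384-well culture plates at 2500-5000 cells per well and exposed to serial dilutions of test compounds for about 3 days. Viable cell numbers were then measured with the Cell Titer-Glo Luminescent Cell Viability Assay (Promega), which detects total ATP, and IC50 values for proliferation inhibition were derived.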

The test system of assay [10] is Ba/F3. Briefly: Cell proliferation inhibition, Cell Titer-Glo, Ba/F3. The format is cell-based. The settings on record: Mus musculus, BaF3; cell proliferation assay, Ba/F3 cells. In outline:
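Ba/F3 cells were seeded at 2500-5000 cells per well in white, clear-bottomed 384-well culture plates and exposed to serial dilutions of test compounds for 3 days. Cell Titer-Glo Luminescent Cell Viability Assay (Promega) reagent, which measures total ATP as an indicator of metabolic activity, was added. Luminescence was read on a multiwell plate reader to derive IC50 values for inhibition of proliferation.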

T1 sequence (P08069 999-1274 limits assumed): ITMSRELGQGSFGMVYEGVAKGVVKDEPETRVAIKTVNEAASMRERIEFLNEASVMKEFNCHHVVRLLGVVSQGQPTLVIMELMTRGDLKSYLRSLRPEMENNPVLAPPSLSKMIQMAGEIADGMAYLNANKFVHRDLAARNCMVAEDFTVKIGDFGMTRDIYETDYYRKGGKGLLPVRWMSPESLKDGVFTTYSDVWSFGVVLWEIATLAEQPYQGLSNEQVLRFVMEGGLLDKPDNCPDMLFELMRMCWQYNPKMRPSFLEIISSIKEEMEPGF
T2 sequence (P06213 1023-1298 limits assumed, species assumed): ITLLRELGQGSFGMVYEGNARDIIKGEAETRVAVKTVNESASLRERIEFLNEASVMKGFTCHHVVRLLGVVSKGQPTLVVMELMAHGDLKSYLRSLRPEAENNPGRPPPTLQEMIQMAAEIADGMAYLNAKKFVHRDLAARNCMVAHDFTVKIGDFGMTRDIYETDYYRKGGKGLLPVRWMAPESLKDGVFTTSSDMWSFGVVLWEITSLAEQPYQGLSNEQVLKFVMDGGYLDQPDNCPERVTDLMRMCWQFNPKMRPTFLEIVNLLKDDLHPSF

`Cc1c(OC[C@H](O)CNc2cc[nH]c(=O)c2-c2nc3cc4c(cc3[nH]2)CN(C2CCN(C)CC2)C4=O)ccc2c1OCO2` [compound 169]: the IC50 in assay [1] was greater than 15 µM; in assay [2] it was greater than 15 µM; in assay [3], less than 0.5 µM; in assay [4], less than 0.5 µM; in assay [5] it was greater than 15 µM; in assay [6], less than 0.5 µM. The same compound came in with an IC50 in assay [7] of 0.5 to 5 µM.

As to `CC(=N)N1CCC(N2C(=O)c3cc4nc(-c5c(NC[C@@H](O)COc6ccc(C)cc6C)cc[nH]c5=O)[nH]c4cc3C2=O)CC1` [compound 161], the IC50 in [1] was greater than 15 µM; in [2], greater than 15 µM; in [3] it was less than 0.5 µM; in assay [4], less than 0.5 µM; in assay [5] it was 5 to 15 µM; in assay [8], greater than 15 µM. For the same compound, the IC50 in assay [6] was 0.5 to 5 µM; in assay [7], 0.5 to 5 µM; in assay [9], 5 to 15 µM; in [10] it was greater than 15 µM.

Take `CN1CCC(N2Cc3cc4[nH]c(-c5c(NC[C@@H](O)COc6ccc7c(c6Cl)OCO7)cc[nH]c5=O)nc4cc3C2=O)CC1` [compound 163]: the IC50 in [1] was greater than 15 µM; in assay [2], 5 to 15 µM; in assay [3], less than 0.5 µM; in assay [4], less than 0.5 µM; in assay [5] it was 5 to 15 µM; in assay [6], less than 0.5 µM. Moreover, in assay [7], the IC50 fell in the range of 0.5 to 5 µM.

Regarding `COc1ccc(OC[C@H](O)CNc2cc[nH]c(=O)c2-c2nc3cc4c(cc3[nH]2)CN(C2CCN(C)CC2)C4=O)c(Cl)c1` [compound 146], the IC50 in assay [1] was greater than 15 µM; in assay [2] it was greater than 15 µM; in assay [3] it was less than 0.5 µM; in assay [4], less than 0.5 µM; in assay [5], 5 to 15 µM; in assay [6], less than 0.5 µM. The compound further yielded a concentration for half-maximal inhibition (IC50) in [7] of 0.5 to 5 µM.

`Cc1ccc(F)c(OC[C@H](O)CNc2cc[nH]c(=O)c2-c2nc3cc4c(cc3[nH]2)C(=O)N(C2CCN(C)CC2)C4)c1Cl` [compound 147]: the IC50 in assay [1] was greater than 15 µM; in assay [2], greater than 15 µM; in [3], less than 0.5 µM; in assay [4], less than 0.5 µM; in assay [5], 0.5 to 5 µM; in assay [6], less than 0.5 µM. In addition, in [7], the IC50 is 5 to 15 µM.

As to `CN1CCC(N2Cc3cc4nc(-c5c(NC[C@@H](O)COc6ccc(F)cc6F)cc[nH]c5=O)[nH]c4cc3C2=O)CC1` [compound 148], the IC50 is 5 to 15 µM in assay [1]; greater than 15 µM in assay [2]; less than 0.5 µM in assay [3]; less than 0.5 µM in [4]; 5 to 15 µM in assay [5]; less than 0.5 µM in assay [6]. This compound registered an IC50 in assay [7] of 0.5 to 5 µM.

As for `CN1CCC(N2Cc3cc4[nH]c(-c5c(NC[C@@H](O)COc6c(F)cc(F)cc6Br)cc[nH]c5=O)nc4cc3C2=O)CC1` [compound 164], the IC50 in [1] was 5 to 15 µM; in assay [2] it was 5 to 15 µM; in assay [3], less than 0.5 µM; in assay [4], less than 0.5 µM; in assay [5] it was 5 to 15 µM; in [6] it was less than 0.5 µM. Also, the IC50 in [7] lay within 0.5 to 5 µM.

Turning to `CN1CCC(N2Cc3cc4[nH]c(-c5c(NC[C@@H](O)COc6cc(F)c(F)cc6Br)cc[nH]c5=O)nc4cc3C2=O)CC1` [compound 168], the IC50 was greater than 15 µM in assay [1]; greater than 15 µM in [2]; less than 0.5 µM in [3]; less than 0.5 µM in assay [4]; 5 to 15 µM in [5]; less than 0.5 µM in [6]. The IC50 in assay [7] fell in the range of 0.5 to 5 µM.

Turning to `Cc1ccc(OC[C@H](O)CNc2cc[nH]c(=O)c2-c2nc3cc4c(cc3[nH]2)CN(C2CCN(C)CC2)C4=O)c(Br)c1` [compound 166], the IC50 was 5 to 15 µM in assay [1]; greater than 15 µM in assay [2]; less than 0.5 µM in assay [3]; less than 0.5 µM in assay [4]; 0.5 to 5 µM in assay [5]; less than 0.5 µM in assay [6]. The compound further had an IC50 in assay [7] of 0.5 to 5 µM.

Take `CCc1c(OC[C@H](O)CNc2cc[nH]c(=O)c2-c2nc3cc4c(cc3[nH]2)CN(C2CCN(C)CC2)C4=O)ccc2c1OCO2` [compound 162]: the IC50 in [1] is 5 to 15 µM; in assay [2] it was 5 to 15 µM; in assay [3] it was less than 0.5 µM; in assay [4], less than 0.5 µM; in [5] it was 5 to 15 µM; in [6], less than 0.5 µM. Further, in assay [7], the IC50 fell in the range of 0.5 to 5 µM.

Regarding `CN1CCC(N2Cc3cc4[nH]c(-c5c(NC[C@@H](O)COc6ccccc6Br)cc[nH]c5=O)nc4cc3C2=O)CC1` [compound 167], the IC50 in assay [1] is greater than 15 µM; in assay [2] it was greater than 15 µM; in assay [3], less than 0.5 µM; in [4], less than 0.5 µM; in assay [5], 0.5 to 5 µM; in assay [6] it was less than 0.5 µM. In assay [7], the IC50 is 0.5 to 5 µM.

Consider `CN1CCC(N2Cc3cc4nc(-c5c(NC[C@@H](O)COc6ccccc6C(F)(F)F)cc[nH]c5=O)[nH]c4cc3C2=O)CC1` [compound 149], for which the IC50 was greater than 15 µM in [1]; 5 to 15 µM in assay [2]; less than 0.5 µM in assay [3]; less than 0.5 µM in assay [4]; 0.5 to 5 µM in assay [5]; less than 0.5 µM in assay [6]. This compound also registered an IC50 in assay [7] of less than 0.5 µM.

The record behind these values is patent publication US8063225B2, “Tricyclic compound derivatives useful in the treatment of neoplastic diseases, inflammatory disorders and immunomodulatory disorders” (Chembridge Corporation, priority 2006, dated 2011).
